Data from patent US20160346320A1, “SUBSTANCE FOR INHIBITING TISSUE CALCIFICATION, TISSUE FIBROSATION AND AGE-RELATED DISEASES” (Fresenius Kabi Deutschland GmbH, priority 2013, published 2016).
Entries after “also recorded” stand apart in the source; their conditions may differ.

Experiments:
TGFβ1 mRNA = assay type: cell-based, human
[1] = growth and body weight of klotho mice; assay type: in vivo; details: for body weight / growth deficit: NH4Cl 0.28 M or acetazolamide 800 mg/l in drinking water
[2] = blood chemistry: plasma concentrations in klotho mice; assay type: in vivo; details: NH4Cl 0.28 M or acetazolamide 800 mg/l in drinking water
[3] = test system: alkaline phosphatase (ALP) mRNA; assay type: cell-based, human
SOX9 = SOX9 expression in HAoSMCs, quantitative RT-PCR; assay type: cell-based, human; details: NH4Cl 500 μM
Experimental: (§1) The following experimental studies were executed: Primary human aortic smooth muscle cells (HAoSMCs, Invitrogen) were cultivated in Waymouth's MB 752/1 medium and Ham's F12 nutrient mixture (1:1, Gibco, Life Technologies) with the addition of 10% FBS (Gibco, Life Technologies). In all experiments, confluent HAoSMCs, passages 4 to 11, were used. The cells were treated for 24 hours with 2 mM β-glycerophosphate (Sigma-Aldrich) with or without simultaneous addition of 0.5 mM ammonium salts or 100 μM chloroquine diphosphate (Sigma-Aldrich). Quantitative RT-PCR (real time polymerase chain reaction) were carried out, as described previously (Voelkl, J., Alesutan, I., Leibrock, C. B., Quintanilla-Martinez, L., Kuhn, V., Feger, M., Mia, S., Ahmed, M. S., Rosenblatt, K. P., Kuro, O., Lang, F.: Spironolactone ameliorates PIT1-dependent vascular osteoinduction in klotho-hypomorphic mice. J. Clin Invest 2013; February 1; 123(2):812-22). For this, HAoSMCs were washed and total RNA were isolated using Trifast reagent (Peqlab) according to the directions from the manufacture. […] The total RNA were likewise isolated with Trifast reagent (Peqlab) in accordance with the directions from the manufacture. In each case, 2 μg RNA of the human as well as the murine samples were used for the reverse transcription of the RNA with oligo(dT)12-18 primers (Invitrogen) and SuperScripIII Reverse Transcriptase (Invitrogen). Quantitative real-time PCR were carried out with an iCycler iQ™ Real-Time PCR Detection System (Bio-Rad Laboratories) and iQ™ Sybr Green Supermix (Bio-Rad Laboratories) according to the manufacturer's instructions. The following primers were used (5′ orientation): […]
(§2) The specificity of the PCR products was checked by means of melting curve analysis and agarose gel electrophoresis. All PCRs were each carried out twice, and the multiple mRNA quantities were calculated by means of the […] methods with GAPDH as the internal reference.

Runx2 mRNA = assay type: cell-based, human
NFAT5 [4] = assay: NFAT5 expression in aortas of klotho mice; assay type: in vivo; details: NH4Cl 0.28 M in drinking water
NFAT5 [5] = assay: NFAT5 expression in HAoSMCs, quantitative RT-PCR; assay type: cell-based, human; details: NH4Cl 500 μM
Experimental: as §1, §2

[6] = HAoSMCs transfected with NFAT5, 2 mM β-glycerophosphate
[7] = HAoSMCs transfected with empty vectors, 2 mM β-glycerophosphate
[8] = HAoSMCs, 2 mM β-glycerophosphate

Compound | TGFβ1 mRNA expression increase (TGFβ1 mRNA) | body weight [1] | growth deficit [1] | ALP mRNA expression increase [3] | Runx2 mRNA expression increase (Runx2 mRNA) | also measured
Ammonium citrate | inhibit the formation of TGFβ1; also recorded: lessened |  |  |  |  | 
CC(=O)Nc1nnc(S(N)(=O)=O)s1 [acetazolamide] |  | could be increased | could not be fully compensated |  |  | concentration of matrix gla protein (MGP) in plasma [2]: fully normalize
CC(O)C(=O)O.N (stereo not shown) [ammonium lactate, Ammonium lactate] | inhibit the formation of TGFβ1; also recorded: lessened |  |  |  |  | 
CCN(CC)CCCC(C)Nc1ccnc2cc(Cl)ccc12 (racemic) [chloroquine, (RS)—N′-(7-chloroquinoline-4-yl)-N,N-diethyl-pentane-1,4-diamine] |  |  |  | reduce the expression; also recorded: suppression of the ALP mRNA expression increase |  | 
Cl.N [ammonium chloride, Ammonium chloride] | inhibit the formation of TGFβ1; also recorded: prevented | nearly entirely neutralize the weight deficiency | nearly entirely neutralized | reduce the expression; also recorded: suppression of the expression increase | inhibit the expression; also recorded: suppressed | expression of SOX9 (SOX9; [6]): prevents the effect of NH4Cl; also recorded: remained high; expression of SOX9 (SOX9; [7]): sink back to a normal level; transcription level of SOX9 (SOX9; [8]): reduced the expression; growth ([1]; wild mice (klotho^+/+), NH4Cl 0.28 M in drinking water): no growth stimulation; expression of NFAT5 in aortas (NFAT5 [4]): normalization of the transcription level; expression of NFAT5 (NFAT5 [5]; [6]): remained high; expression of NFAT5 (NFAT5 [5]; [7]): sink back to a normal level; transcription level of NFAT5 (NFAT5 [5]; [8]): reduced the expression; also recorded: reverse the increase
N.N.O=S(=O)(O)O [ammonium sulfate, Ammonium sulfate] | inhibit the formation of TGFβ1; also recorded: lessened |  |  | reduce the expression; also recorded: suppression of the expression increase | inhibit the expression; also recorded: suppressed | 
